Patent US20230226005A1, “Methods of Treating, Ameliorating, Shortening Duration, and/or Reversing Symptoms and/or Complications of a Coronavirus Infection” (Yale University, priority 2020, published 2023)

Key:
SARS-CoV-2 = assay: Phase IIa double-blind placebo-controlled study, camostat mesylate 200 mg four times daily for seven days: viral load (log10) by COVID-19 RT-PCR of nasopharyngeal swab and saliva; assay type: in vivo; conditions: for viral load Camostat LSMean Change (SE) / viral load change Difference (SE) between treatment groups: ANCOVA linear mixed model, n = 57; for viral load change Difference (SE) between treatment groups: placebo minus camostat
COVID-19 infection = assay: Phase IIa study: smell/taste-family symptom score; assay type: in vivo; conditions: for smell/taste-family symptoms, Fitzmaurice mixed effects model, Effect: Camostat vs Placebo
SARS-CoV-1 = conditions: mice; reduced from 100%; concentration similar to clinically achievable concentration in humans; cited from earlier work
[1] = test system: SARS-CoV-2 cellular entry; conditions: in vitro as well as in vivo; cited from earlier work
[2] = visit 3 (day 4), listed as Camostat

## CN(C)C(=O)COC(=O)Cc1ccc(OC(=O)c2ccc(NC(=N)N)cc2)cc1 [camostat, 4-[[4-[(Aminoiminomethyl)amino]benzoyl]oxy]benzeneacetic acid 2-(dimethylamino)-2-oxoethyl ester]
SARS-CoV-2; S gene, day 2
  viral load, Fitzmaurice mixed model, visit 2: 3.6 (2.6, 4.6) log10
  viral load, Fitzmaurice mixed model, visit 2 change: −1.4 (−2.2, −0.5) log10
SARS-CoV-2; S gene, day 4
  viral load change Effect (camostat vs placebo), Fitzmaurice mixed model, visit 3(D4): −0.13 (−1.07, 0.8) log10
  viral load, Fitzmaurice mixed model, visit 3(D4): 2.7 (1.9, 3.5) log10
  viral load, Fitzmaurice mixed model, visit 3(D4) change: −2.3 (−3.1, −1.5) log10
SARS-CoV-2; S gene, day 6
  viral load change Effect (camostat vs placebo), Fitzmaurice mixed model, visit 4(D6): 0.19 (−0.98, 1.36) log10
  viral load, Fitzmaurice mixed model, visit 4(D6): 1.7 (0.8, 2.6) log10
  viral load, Fitzmaurice mixed model, visit 4(D6) change: −3.2 (−4.3, −2.2) log10
SARS-CoV-2; S gene, visit 1 (day 0)
  change in viral load from baseline, Mean: 0.00 log10
  change in viral load from baseline, Median: 0.00 log10
  viral load (log10) Mean: 4.50 log10
  viral load (log10) Median: 5.02 log10
SARS-CoV-2; S gene, visit 2 (day 2)
  change in viral load from baseline, Mean: −1.24 log10
  change in viral load from baseline, Median: −0.89 log10
  viral load (log10) Mean: 3.04 log10
  viral load (log10) Median: 3.22 log10
SARS-CoV-2; S gene, visit 3 (day 4)
  change in viral load from baseline, Mean: −2.06 log10
  change in viral load from baseline, Median: −1.94 log10
  viral load (log10) Mean: 2.42 log10
  viral load (log10) Median: 1.01 log10
SARS-CoV-2; S gene, visit 4 (day 6)
  change in viral load from baseline, Mean: −2.70 log10
  change in viral load from baseline, Median: −2.41 log10
  viral load (log10) Mean: 1.48 log10
  viral load (log10) Median: 0.00 log10
SARS-CoV-2; S gene, visit 5 (day 14)
  change in viral load from baseline, Mean: −4.20 log10
  change in viral load from baseline, Median: −4.28 log10
  viral load (log10) Mean: 0.27 log10
  viral load (log10) Median: 0.00 log10
SARS-CoV-2; S gene, visit 6 (day 28)
  change in viral load from baseline, Mean: −4.37 log10
  change in viral load from baseline, Median: −4.88 log10
  viral load (log10) Mean: 0.00 log10
  viral load (log10) Median: 0.00 log10
SARS-CoV-2; visit 2 (day 2)
  viral load Camostat LSMean Change (SE): −1.10 (0.30) log10
  viral load change Difference (SE) between treatment groups: −0.01 (0.42) log10
SARS-CoV-2; visit 3 (day 4)
  viral load Camostat LSMean Change (SE): −1.94 log10
  viral load change Difference (SE) between treatment groups: −0.69 log10
SARS-CoV-2; [2]
  viral load Camostat LSMean Change (SE): −1.94 (0.32) log10
  viral load change Difference (SE) between treatment groups: −0.69 (0.45) log10
SARS-CoV-2; visit 4 (day 6)
  viral load Camostat LSMean Change (SE): −3.22 (0.46) log10
  viral load change Difference (SE) between treatment groups: −0.39 (0.63) log10
COVID-19 infection; Day 0
  smell/taste-family symptoms, Fitzmaurice mixed effects model, Camostat: 1.4 (0.2)
COVID-19 infection; Day 1
  smell/taste-family symptoms, Fitzmaurice mixed effects model, Camostat: 1.4 (0.2)
  smell/taste-family symptoms, Fitzmaurice mixed effects model, Effect: 0.5 (0.3)
COVID-19 infection; Day 2
  smell/taste-family symptoms, Fitzmaurice mixed effects model, Camostat: 1.4 (0.2)
  smell/taste-family symptoms, Fitzmaurice mixed effects model, Effect: 0.7 (0.3)
COVID-19 infection; Day 3
  smell/taste-family symptoms, Fitzmaurice mixed effects model, Camostat: 1.3 (0.2)
  smell/taste-family symptoms, Fitzmaurice mixed effects model, Effect: 1 (0.3)
COVID-19 infection; Day 4
  smell/taste-family symptoms, Fitzmaurice mixed effects model, Camostat: 1.2 (0.2)
  smell/taste-family symptoms, Fitzmaurice mixed effects model, Effect: 1 (0.3)
COVID-19 infection; Day 5
  smell/taste-family symptoms, Fitzmaurice mixed effects model, Camostat: 1.1 (0.2)
  smell/taste-family symptoms, Fitzmaurice mixed effects model, Effect: 1.2 (0.3)
COVID-19 infection; Day 6
  smell/taste-family symptoms, Fitzmaurice mixed effects model, Camostat: 1 (0.2)
  smell/taste-family symptoms, Fitzmaurice mixed effects model, Effect: 0.7 (0.3)
COVID-19 infection; Day 7
  smell/taste-family symptoms, Fitzmaurice mixed effects model, Camostat: 0.8 (0.2)
  smell/taste-family symptoms, Fitzmaurice mixed effects model, Effect: 0.7 (0.3)
COVID-19 infection; Day 8
  smell/taste-family symptoms, Fitzmaurice mixed effects model, Camostat: 0.8 (0.2)
  smell/taste-family symptoms, Fitzmaurice mixed effects model, Effect: 0.8 (0.3)
COVID-19 infection; Day 9
  smell/taste-family symptoms, Fitzmaurice mixed effects model, Camostat: 0.9 (0.2)
  smell/taste-family symptoms, Fitzmaurice mixed effects model, Effect: 0.6 (0.3)
COVID-19 infection; Day 10
  smell/taste-family symptoms, Fitzmaurice mixed effects model, Camostat: 0.9 (0.2)
  smell/taste-family symptoms, Fitzmaurice mixed effects model, Effect: 0.5 (0.3)
COVID-19 infection; Day 11
  smell/taste-family symptoms, Fitzmaurice mixed effects model, Camostat: 0.9 (0.2)
  smell/taste-family symptoms, Fitzmaurice mixed effects model, Effect: 0.3 (0.3)
COVID-19 infection; Day 12
  smell/taste-family symptoms, Fitzmaurice mixed effects model, Camostat: 0.9 (0.2)
  smell/taste-family symptoms, Fitzmaurice mixed effects model, Effect: 0.2 (0.3)
COVID-19 infection; Day 13
  smell/taste-family symptoms, Fitzmaurice mixed effects model, Camostat: 0.7 (0.3)
  smell/taste-family symptoms, Fitzmaurice mixed effects model, Effect: 0.4 (0.3)
COVID-19 infection; Day 14
  smell/taste-family symptoms, Fitzmaurice mixed effects model, Camostat: 0.8 (0.3)
  smell/taste-family symptoms, Fitzmaurice mixed effects model, Effect: 0.4 (0.3)
SARS-CoV-1
  mortality following SARS-CoV-1 infection: 30-35%
[1]
  SARS-CoV-2 cellular entry: can be blocked
